Test system: HCV (Ib) RNA replication
Assay: Cell-based luciferase reporter HCV (1b) RNA replication assay (replicon cell lines Huh-7 5.2 and ET)
Set-up: species or system Hepatitis C virus
Conditions: Hepatitis C virus, Huh-7, 96 h, HCV 1b genotype replicon, luciferase readout, 4 days incubation; read-out: EC50_1b
Text: Cell-Based Luciferase Reporter HCV (Ib) RNA Replication Assay Cell Culture
Replicon cell lines Huh-7, 5.2 and ET which are derived from the Huh-7 hepatocarcinoma cell line are maintained in culture as generally described in Krieger, N; Lohmann, V; Bartenschlager, R. Enhancement of hepatitis C virus RNA replication by cell culture-adaptive mutations. J. Virol. 2001, 75, 4614-4624. The Huh-7, 5.2 cells contain the highly cell culture-adapted replicon I389luc-ubi-neo/NS3-3′/5.1 construct that carries, in addition to the neomycin gene, an integrated copy to the firefly luciferase gene (Krieger, N; Lohmann, V; Bartenschlager, R. Enhancement of hepatitis C virus RNA replication by cell culture-adaptive mutations. J. Virol. 2001, 75, 4614-4624). This cell line allows measurement of HCV RNA replication and translation by measuring luciferase activity. It has been previously shown that the luciferase activity tightly follows the replicon RNA level in these cells (Krieger, N; Lohmann, V; Bartenschlager, R. Enhancement of hepatitis C virus RNA replication by cell culture-adaptive mutations. J. Virol. 2001, 75, 4614-4624). The Huh-7, ET cell line has the same features as those mentioned for Huh-7, 5.2 cell line, except that ET cells are more robust and contain an adaptative mutation in the HCV NS4B gene instead of NS5A. Both cell lines are maintained in cultures at a sub-confluent level (<85%) as the level of replicon RNA is highest in actively proliferating cells. The culture media used for cell passaging consist of DMEM (Gibco BRL Laboratories, Mississauga, ON, Canada) supplemented with 10% foetal bovine serum with 1% penicillin/streptomycin, 1% glutamine, 1% sodium pyruvate, 1% non-essential amino acids, and 180 ug/ml of G418 final concentration. Cells are incubated at 37° C., in an atmosphere of 5% CO2 and passaged twice a week to maintain sub-confluence.
Approximately 3000 viable Huh-7, 5.2 or ET cells (100 μl) are plated per well in a white opaque 96-well microtiter plate. The cell culture media used for the assay is the same as described above except that it contains no G418 and no phenol red. After an incubation period of 3-4 hours at 37° C. in a 5% CO2 incubator, compounds (100 μl) are added at various concentrations. Cells are then further incubated for 4 days at 37° C. in a 5% CO2 incubator. Thereafter, the culture media is removed and cells are lysed by the addition of 95 μL of the luciferase buffer (luciferin substrate in buffered detergent). Cell lysates are incubated at room temperature and protected from direct light for at least 10 minutes. Plates are read for luciferase counts using a luminometer (Wallac MicroBeta Trilux, Perkin ELmer™, MA, USA).
The 50% inhibitory concentrations (IC50s) for inhibitory effect are determined from dose response curves using eleven concentrations per compound in duplicate. Curves are fitted to data points using nonlinear regression analysis, and IC50s are interpolated from the resulting curve using GraphPad Prism software, version 2.0 (GraphPad Software Inc., San Diego, Calif., USA).
Table 2 show compounds representative of the present invention and the EC50 values against the HCV 1b genotype.

For `COC(=O)NC(C(=O)N1C[C@H](O)C[C@H]1c1nc2ccc(-c3ccc(-c4ccc5[nH]c([C@@H]6C[C@@H](O)CN6C(=O)[C@@H](NC(=O)OC)C(C)C)nc5c4)cc3)cc2[nH]1)C(C)C` (stereo in doubt) [Compound 26, ((S)-1-{(2S,4R)-4-Hydroxy-2-[5-(4-{2-[(2S,4R)-4-hydroxy-1-((S)-2-methoxycarbonylamino-3-methyl-butyryl)-pyrrolidin-2-yl]-1H-benzoimidazol-5-yl}-phenyl)-1H-benzoimidazol-2-yl]-pyrrolidine-1-carbonyl}-2-methyl-propyl)-carbamic acid methyl ester], which EC50 is on record?
The EC50 was ≤ 5 nM.

`COC(=O)N[C@H](C(=O)N1CCC[C@H]1c1nc2cc(-c3ccc(-c4ccc5nc([C@@H]6CCCN6C(=O)[C@@H](NC(=O)OC)C(C)C)[nH]c5c4)cc3)ccc2[nH]1)C(C)C` [Compound 1, ((S)-1-{(S)-2-[5-(4-{2-[(S)-1-((S)-2-Methoxycarbonylamino-3-methyl-butyryl)-pyrrolidin-2-yl]-1H-benzoimidazol-5-yl}-phenyl)-1H-benzoimidazol-2-yl]-pyrrolidine-1-carbonyl}-2-methyl-propyl)-carbamic acid methyl ester] was tested. Which EC50 did it give?
Its EC50 is ≤ 5 nM.

How did the EC50 turn out when `COC(=O)N[C@H](C(=O)N1CCC[C@H]1c1nc2ccc(-c3cccc(-c4ccc5nc([C@@H]6CCCN6C(=O)[C@@H](NC(=O)OC)C(C)C)[nH]c5c4)c3)cc2[nH]1)C(C)C` [Compound 2, ((S)-1-{(S)-2-[5-(3-{2-[(S)-1-((S)-2-Methoxycarbonylamino-3-methyl-butyryl)-pyrrolidin-2-yl]-1H-benzoimidazol-5-yl}-phenyl)-1H-benzoimidazol-2-yl]-pyrrolidine-1-carbonyl}-2-methyl-propyl)-carbamic acid methyl ester] was run?
Its EC50 is 5 to 5000 nM.

With `COC(=O)N[C@H](C(=O)N1CC(F)(F)C[C@H]1c1nc2cc(-c3ccc(-c4ccc5nc([C@@H]6CC(F)(F)CN6C(=O)[C@@H](NC(=O)OC)C(C)C)[nH]c5c4)cc3)ccc2[nH]1)C(C)C` [Compound 3, ((S)-1-{(S)-2-[5-(4-{2-[(S)-4,4-Difluoro-1-((S)-2-methoxycarbonylamino-3-methyl-butyryl)-pyrrolidin-2-yl]-1H-benzoimidazol-5-yl}-phenyl)-1H-benzoimidazol-2-yl]-4,4-difluoro-pyrrolidine-1-carbonyl}-2-methyl-propyl)-carbamic acid methyl ester] as the compound, how does the EC50 read?
The EC50 was ≤ 5 nM.

For `COC(=O)N(C)[C@H](C(=O)N1CCC[C@H]1c1nc2cc(-c3ccc(-c4ccc5nc([C@@H]6CCCN6C(=O)[C@H](C(C)C)N(C)C(=O)OC)[nH]c5c4)cc3)ccc2[nH]1)C(C)C` [Compound 4, [(S)-1-((S)-2-{5-[4-(2-{(S)-1-[(S)-2-(Methoxycarbonyl-methyl-amino)-3-methyl-butyryl]-pyrrolidin-2-yl}-1H-benzoimidazol-5-yl)-phenyl]-1H-benzoimidazol-2-yl}-pyrrolidine-1-carbonyl)-2-methyl-propyl]-methyl-carbamic acid methyl ester], which EC50 is on record?
Its EC50 is ≤ 5 nM.

With `COC(=O)N[C@H](C(=O)N1CCC[C@H]1c1nc2cc(-c3ccc(-c4ccc5nc([C@@H]6CCCN6C(=O)[C@@H](NC(=O)OC)C(C)C)[nH]c5c4)cc3C#N)ccc2[nH]1)C(C)C` [Compound 5, ((S)-1-{(S)-2-[5-(2-Cyano-4-{2-[(S)-1-((S)-2-methoxycarbonylamino-3-methyl-butyryl)-pyrrolidin-2-yl]-1H-benzoimidazol-5-yl}-phenyl)-1H-benzoimidazol-2-yl]-pyrrolidine-1-carbonyl}-2-methyl-propyl)-carbamic acid methyl ester] as the compound, how does the EC50 read?
The EC50 was ≤ 5 nM.

For `COC(=O)N[C@H](C(=O)N1CCC[C@H]1c1nc2cc(-c3ccc(-c4ccc5nc([C@@H]6CCCN6C(=O)[C@@H](NC(=O)OC)C(C)C)[nH]c5c4)cn3)ccc2[nH]1)C(C)C` [Compound 6, ((S)-1-{(S)-2-[5-(5-{2-[(S)-1-((S)-2-Methoxycarbonylamino-3-methyl-butyryl)-pyrrolidin-2-yl]-1H-benzoimidazol-5-yl}-pyridin-2-yl)-1H-benzoimidazol-2-yl]-pyrrolidine-1-carbonyl}-2-methyl-propyl)-carbamic acid methyl ester], which EC50 is on record?
Its EC50 is ≤ 5 nM.

How did the EC50 turn out when `COC(=O)N[C@H](C(=O)N1CCC[C@H]1c1nc2cc(-c3ccc(-c4ccc5nc([C@@H]6CCCN6C(=O)[C@@H](NC(=O)OC)C(C)C)[nH]c5c4)cc3C)ccc2[nH]1)C(C)C` [Compound 7, ((S)-1-{(S)-2-[5-(4-{2-[(S)-1-((S)-2-Methoxycarbonylamino-3-methyl-butyryl)-pyrrolidin-2-yl]-1H-benzoimidazol-5-yl}-2-methyl-phenyl)-1H-benzoimidazol-2-yl]-pyrrolidine-1-carbonyl}-2-methyl-propyl)-carbamic acid methyl ester] was run?
The EC50 was ≤ 5 nM.

With `COC(=O)N[C@H](C(=O)N1CCC[C@H]1c1nc2cc(-c3ccc(-c4ccc5nc([C@@H]6CCCN6C(=O)[C@@H](NC(=O)OC)C(C)C)[nH]c5c4)cc3OC)ccc2[nH]1)C(C)C` [Compound 8, ((S)-1-{(S)-2-[5-(2-Methoxy-4-{2-[(S)-1-((S)-2-methoxycarbonylamino-3-methyl-butyryl)-pyrrolidin-2-yl]-1H-benzoimidazol-5-yl}-phenyl)-1H-benzoimidazol-2-yl]-pyrrolidine-1-carbonyl}-2-methyl-propyl)-carbamic acid methyl ester] as the compound, how does the EC50 read?
Its EC50 is ≤ 5 nM.

With `COC(=O)N[C@H](C(=O)N1CCC[C@H]1c1nc2cc(-c3ccc(-c4ccc5nc([C@@H]6CCCN6C(=O)[C@@H](NC(=O)OC)C(C)C)[nH]c5c4)cc3F)ccc2[nH]1)C(C)C` [Compound 9, ((S)-1-{(S)-2-[5-(2-Fluoro-4-{2-[(S)-1-((S)-2-methoxycarbonylamino-3-methyl-butyryl)-pyrrolidin-2-yl]-1H-benzoimidazol-5-yl}-phenyl)-1H-benzoimidazol-2-yl]-pyrrolidine-1-carbonyl}-2-methyl-propyl)-carbamic acid methyl ester] as the compound, how does the EC50 read?
Its EC50 is ≤ 5 nM.

How did the EC50 turn out when `COC(=O)N[C@H](C(=O)N1CCC[C@H]1c1nc2cc(-c3ccc(-c4ccc5[nH]c([C@@H]6CCCN6C(=O)[C@@H](NC(=O)OC)C(C)C)nc5c4)c(Cl)c3)ccc2[nH]1)C(C)C` [Compound 10, ((S)-1-{(S)-2-[5-(2-Chloro-4-{2-[(S)-1-((S)-2-methoxycarbonylamino-3-methyl-butyryl)-pyrrolidin-2-yl]-1H-benzoimidazol-5-yl}-phenyl)-1H-benzoimidazol-2-yl]-pyrrolidine-1-carbonyl}-2-methyl-propyl)-carbamic acid methyl ester] was run?
The EC50 was ≤ 5 nM.

Which EC50 does the source give for `COC(=O)N[C@H](C(=O)N1CCC[C@H]1c1nc2cc(-c3ccc(-c4ccc5[nH]c([C@@H]6CCCN6C(=O)[C@@H](NC(=O)OC)C(C)C)nc5c4)c(C#N)n3)ccc2[nH]1)C(C)C` [Compound 11, ((S)-1-{(S)-2-[5-(2-Cyano-6-{2-[(S)-1-((S)-2-methoxycarbonylamino-3-methyl-butyryl)-pyrrolidin-2-yl]-1H-benzoimidazol-5-yl}-pyridin-3-yl)-1H-benzoimidazol-2-yl]-pyrrolidine-1-carbonyl}-2-methyl-propyl)-carbamicacid methyl ester] here?
The EC50 was 5 to 5000 nM.

For `COC(=O)N[C@H](C(=O)N1CCC[C@H]1c1nc2ccc(-c3cc(OC)c(-c4ccc5nc([C@@H]6CCCN6C(=O)[C@@H](NC(=O)OC)C(C)C)[nH]c5c4)cc3OC)cc2[nH]1)C(C)C` [Compound 12], which EC50 is on record?
The EC50 was ≤ 5 nM.

`COC(=O)N[C@H](C(=O)N1CCC[C@H]1c1nc2cc(-c3ccc(-c4ccc5[nH]c([C@@H]6CCCN6C(=O)[C@@H](NC(=O)OC)C(C)C)nc5c4)c(C)c3C)ccc2[nH]1)C(C)C` [Compound 13, ((S)-1-{(S)-2-[5-(4-{2-[(S)-1-((S)-2-Methoxycarbonylamino-3-methyl-butyryl)-pyrrolidin-2-yl]-1H-benzoimidazol-5-yl}-2,3-dimethyl-phenyl)-1H-benzoimidazol-2-yl]-pyrrolidine-1-carbonyl}-2-methyl-propyl)-carbamic acid methyl ester] was tested. Which EC50 did it give?
Its EC50 is ≤ 5 nM.

— US8354419B2, “Benzimidazole analogues for the treatment or prevention of flavivirus infections” (Vertex Pharmaceuticals Incorporated, priority 2009, dated 2013)
